Series [1] deals with chronic leg ulcers in patients with sickle cell anaemia. The note with it: concomitant use in 9 of 18 trial patients; p=0.96.
Experimental: The primary endpoints were safety and tolerability, with secondary endpoints of pharmacokinetics, blood flow, and wound healing. Pain relief was analysed post hoc. Endpoints were analysed over time for the whole study population and according to dose level.
Hydroxycarbamide and chronic transfusions were allowed. Patients with acute infections were excluded.
Originally, it was planned to enroll four cohorts with three patients in each, to give a total of 12 participants. […] The first two doses of cream were administered as inpatients, and the remaining six doses in the outpatient day hospital at the NIH Clinical Center. […] All three patients in each cohort were assessed for the 32-day duration of the study to ensure no dose-limiting toxicities before patients were enrolled into the next cohort. […]
The study ulcer was selected by the wound care nurse and principal investigator on the basis of ulcer duration, size, and accessibility for digital imaging. […] Ulcers were measured manually with a disposable ruler (longest length and widest width) at each encounter and by digital photography three times: before the first application of cream (baseline), and after 2 weeks and after 4 weeks of treatment. […] The ulcer area was calculated by converting the number of pixels representing the ulcer to cm^2 using a calibrated square (35.48 mm×35.62 mm×6.52 mm) that was placed near the ulcer for reference. […]
The conditions of series [2]: trial patients; after ingestion of hydroxycarbamide vs after sodium nitrite application.
Experimental: Plasma and whole blood nitrite and nitrate concentrations were collected at the following time points: pre-dose; immediately after application; 5, 10, 15, 20, 30, 45, 60, and 90 min post-dose; 2, 3, 6, 8, 12, 24, and 48 h post-dose; then weekly and at the end of the study. All processing was done at the bedside. Plasma and whole blood nitrite and nitrate were measured with a gas-phase chemiluminescence nitric oxide analyzer, as previously reported (Gladwin et al., Proc Natl Acad Sci USA.; 97: 11482-11487, 2000).
Therefore, we did a subsequent pharmacokinetic analysis was carried out with respect to the time and dose of hydroxycarbamide intake instead of nitrite cream administration, using a population approach. A two-compartment model was fitted with first-order absorption and elimination to whole blood nitrite concentrations using first-order conditional estimation method by Phoenix NLME 1.2 (Certara USA Inc., St Louis, Mo., USA), and an exponential model was used to describe the inter-individual variability and a mixed-ratio model to describe the intra-individual variability (FIG. 7C).
The test system of series [3] is sickle cell disease leg ulcers. The note with it: published randomised trials; RGD peptide topical, arginine butyrate intravenous; cited from earlier work.

We go through three compounds from US10272039B2 (The United States of America, as represented by the …, priority 2014, dated 2019).

For the compound `NC(=O)NO` [hydroxycarbamide], the “Association with ulcer healing” value in series [1] is listed as “not associated with ulcer healing”. In series [2], the “Whole blood nitrite concentrations” value is listed as “increased”. Consider arginine butyrate, for which, in series [3], the Wound closure entry is “statistically significant increases in wound closure”.

Consider Arg-Gly-Asp (RGD) peptide, for which the Wound closure entry in series [3] is reported as “statistically significant increases in wound closure”.
